From ChEMBL document CHEMBL4257494, “Exploring eukaryotic versus prokaryotic ribosomal RNA recognition with aminoglycoside derivatives” (Medchemcomm, 2018)
pIC50: −log10 of the molar value. The source made the active and inactive calls. No cut-off for these calls is given here.

Key:
Bacillus spizizenii = experiment: Antibacterial activity against Bacillus subtilis ATCC 6633 by double-microdilution method; format: functional
HEK293 [1] = experiment: Binding affinity to decoding-site of rRNA in HEK293 cells assessed as read through activity at premature termination codon-containing PCDH15 R3X nonsense mutant gene (unknown origin) expressed in HEK293 cells after 16 hrs by dual luciferase reporter gene assay; format: cell-based; details: Homo sapiens
[2] = Ratio of IC50 for inhibition of decoding-site of rRNA-mediated protein translation in rabbit reticulocytes to IC50 for inhibition of decoding-site of rRNA-mediated protein translation in Escherichia coli S30 extract; format: cell-based
[3] = Binding affinity to decoding-site of rRNA in rabbit reticulocytes assessed as inhibition of protein translation after 60 mins by coupled transcription/translation assay; format: cell-based, Oryctolagus cuniculus
Escherichia coli = experiment: Antibacterial activity against Escherichia coli R477/100 by double-microdilution method; format: functional
HEK293 [4] = experiment: Binding affinity to decoding-site of rRNA in HEK293 cells assessed as read through activity at premature termination codon-containing CFTR G452X nonsense mutant gene (unknown origin) expressed in HEK293 cells after 16 hrs by dual luciferase reporter gene assay; format: cell-based; details: Homo sapiens
[5] = Binding affinity to decoding-site of rRNA in Escherichia coli S30 extract assessed as inhibition of protein translation after 60 mins by coupled transcription/translation assay

SMILES: C[C@H](N)[C@H]1O[C@H](O[C@@H]2[C@@H](O)[C@H](N)C[C@H](N)[C@H]2O[C@H]2O[C@@H](C(N)=O)[C@@H](O)[C@H](O)[C@H]2N)[C@H](O)[C@@H]1O.O=S(=O)(O)O
- MIC (Bacillus spizizenii): > 192 µg/mL
- Activity (HEK293 [1]): inactive
- Ratio IC50 [2]: 0.2
- pIC50 [3]: 3.28
- MIC (Escherichia coli): > 192 µg/mL
- Activity (HEK293 [4]): inactive
- pIC50 [5]: 2.64

SMILES: NC[C@H]1O[C@H](O[C@@H]2[C@@H](O)[C@H](N)C[C@H](N)[C@H]2O[C@H]2O[C@@H](C(=O)O)[C@@H](O)[C@H](O)[C@H]2N)[C@H](O)[C@@H]1O.O=S(=O)(O)O
- MIC (Bacillus spizizenii): > 192 µg/mL
- Ratio IC50 [2]: 1.2
- pIC50 [3]: 3.30
- MIC (Escherichia coli): > 192 µg/mL
- pIC50 [5]: 3.38

SMILES: N[C@H]1[C@@H](O[C@H]2[C@H](O)[C@@H](O)[C@H](N)C[C@@H]2N)O[C@@H](C(=O)O)[C@@H](O)[C@@H]1O.O=S(=O)(O)O
- MIC (Bacillus spizizenii): 100 µg/mL
- Ratio IC50 [2]: 60
- pIC50 [3]: 4.52
- pIC50 [5]: 6.30

SMILES: C[C@H](N)[C@H]1O[C@H](O[C@@H]2[C@@H](O)[C@H](N)C[C@H](N)[C@H]2O[C@H]2O[C@H](CO)[C@@H](O)[C@H](O)[C@H]2N)[C@H](O)[C@@H]1O.O=S(=O)(O)O
- MIC (Bacillus spizizenii): > 192 µg/mL
- Activity (HEK293 [1]): Active
- Ratio IC50 [2]: 1.3
- pIC50 [3]: 2.50
- MIC (Escherichia coli): > 192 µg/mL
- Activity (HEK293 [4]): Active
- pIC50 [5]: 2.62

SMILES: NC[C@H]1O[C@H](O[C@@H]2[C@@H](O)[C@H](N)C[C@H](N)[C@H]2O[C@H]2O[C@H](CO)[C@@H](O)[C@H](O)[C@H]2N)[C@H](O)[C@@H]1O.O=S(=O)(O)O
- MIC (Bacillus spizizenii): > 192 µg/mL
- Activity (HEK293 [1]): Active
- Ratio IC50 [2]: 1.5
- pIC50 [3]: 2.36
- MIC (Escherichia coli): > 192 µg/mL
- Activity (HEK293 [4]): Active
- pIC50 [5]: 2.53

SMILES: N[C@H]1[C@@H](O[C@H]2[C@H](O)[C@@H](O)[C@H](N)C[C@@H]2N)O[C@H](CO)[C@@H](O)[C@@H]1O.O=S(=O)(O)O [PAROMAMINE SULFATE]
- MIC (Bacillus spizizenii): > 192 µg/mL
- Ratio IC50 [2]: 80
- pIC50 [3]: 3.10
- MIC (Escherichia coli): > 192 µg/mL
- pIC50 [5]: 5.00

SMILES: C[C@H](N)[C@H]1O[C@H](O[C@@H]2[C@@H](O)[C@H](N)C[C@H](N)[C@H]2O[C@H]2O[C@@H](C(=O)O)[C@@H](O)[C@H](O)[C@H]2N)[C@H](O)[C@@H]1O.O=S(=O)(O)O
- MIC (Bacillus spizizenii): > 192 µg/mL
- Activity (HEK293 [1]): inactive
- Ratio IC50 [2]: 0.5
- pIC50 [3]: 3.22
- MIC (Escherichia coli): > 192 µg/mL
- Activity (HEK293 [4]): inactive
- pIC50 [5]: 2.89

SMILES: NC(=O)[C@@H]1O[C@H](O[C@H]2[C@H](O)[C@@H](O)[C@H](N)C[C@@H]2N)[C@H](N)[C@@H](O)[C@@H]1O.O=S(=O)(O)O
- MIC (Bacillus spizizenii): > 192 µg/mL
- Ratio IC50 [2]: 0.5
- pIC50 [3]: 3.15
- MIC (Escherichia coli): > 192 µg/mL
- pIC50 [5]: 2.89

SMILES: NC[C@H]1O[C@H](O[C@@H]2[C@@H](O)[C@H](N)C[C@H](N)[C@H]2O[C@H]2O[C@@H](C(N)=O)[C@@H](O)[C@H](O)[C@H]2N)[C@H](O)[C@@H]1O.O=S(=O)(O)O
- MIC (Bacillus spizizenii): 83 µg/mL
- Ratio IC50 [2]: 10
- pIC50 [3]: 4.70
- pIC50 [5]: 5.70
